From ChEMBL document CHEMBL1201862, “PubChem BioAssay data set” (2004)
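Where inhibition never reached the appropriate level, the endpoint shown equals the highest concentration tested. Otherwise, values were interpolated linearly from a five-concentration, 48-hour dose response in 96-well plates. GI50 marks 50% less growth.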 Active and inactive are the calls of the source. Cut-off read from the data, not from the text of the source: active = GI50 up to about 1.1 µM and inactive = higher.

What was measured:
Test in all cases: growth of human tumour cells (NCI), 48 h
DLD-1 = tested on: DLD-1
DMS-273 = tested on: DMS-273
HOP-18 = tested on: HOP-18
KM-20L2 = tested on: KM-20L2
M19-MEL = tested on: M19-MEL
SNB-78 = tested on: SNB-78
XF498 = tested on: XF498
LXFL 529 = tested on: LXFL 529
RXF 631 = tested on: RXF 631

SMILES | GI50 (DLD-1) | GI50 (DMS-273) | GI50 (HOP-18) | GI50 (KM-20L2) | GI50 (M19-MEL) | GI50 (SNB-78) | GI50 (XF498) | GI50 (LXFL 529) | GI50 (RXF 631)
CC(C)=CCC(OC(=O)C=C(C)C)c1cc(O)c2c(c1O)C(=O)C=CC2=O (configuration not stated) | 0.279 µM (active) | 1.98 µM (inactive) | 3.52 µM (inactive) | 1.82 µM (inactive) | 0.621 µM (active) | 2.07 µM (inactive) | 0.809 µM (active) | – | –
COc1cccc2c1C(=O)c1c(O)c3c(c(O)c1C2=O)C[C@@](O)(C(C)=O)C[C@@H]3OC1CC(O)C(O)C(C)O1 (some centres not stated) | 1.46 µM (inactive) | 0.253 µM (active) | 1.39 µM (inactive) | 2.69 µM (inactive) | 1.6 µM (inactive) | 4.42 µM (inactive) | – | 2.79 µM (inactive) | –
O=C(NC(Cc1ccc(I)cc1)C(=O)O)c1ccc(Br)cc1 (configuration not stated) | > 100 µM (inactive) | > 100 µM (inactive) | > 100 µM (inactive) | > 100 µM (inactive) | > 82.2 µM (inactive) | > 100 µM (inactive) | > 77.6 µM (inactive) | – | –
CC1=CC[C@H](C)C(C)(C)C1/C=C/C(C)=C/CC[C@@]1(CO)[C@H](CCCO)/C(=C(/C)C=O)CC[C@]1(C)O (some centres not stated) | 3.53 µM (inactive) | 2.2 µM (inactive) | 15.5 µM (inactive) | 1.82 µM (inactive) | 17.2 µM (inactive) | 13.2 µM (inactive) | 7.41 µM (inactive) | 7.62 µM (inactive) | –
O=C(O)C1CCC(=O)N1C(=O)COc1cc(Cl)c(Cl)cc1Cl (configuration not stated) | – | > 100 µM (inactive) | – | > 100 µM (inactive) | > 100 µM (inactive) | > 100 µM (inactive) | > 100 µM (inactive) | > 100 µM (inactive) | > 100 µM (inactive)
CCOC(=O)C(C(=O)OCC)c1cc(-c2cc3ccccc3o2)oc(=O)c1C#N | – | 25.9 µM (inactive) | 16 µM (inactive) | 19.3 µM (inactive) | – | 18 µM (inactive) | 19 µM (inactive) | 20.4 µM (inactive) | –
O=C1[C@@H]2C(c3c(Cl)cccc3Cl)=NO[C@@H]2C(=O)N1c1ccc(Cc2ccc(N3C(=O)[C@H]4C(c5c(Cl)cccc5Cl)=NO[C@H]4C3=O)cc2)cc1 | > 100 µM (inactive) | > 100 µM (inactive) | > 100 µM (inactive) | > 100 µM (inactive) | > 100 µM (inactive) | > 100 µM (inactive) | > 100 µM (inactive) | > 100 µM (inactive) | –
Clc1ccccc1/C=C/c1cscn1 | > 100 µM (inactive) | – | – | – | > 100 µM (inactive) | > 100 µM (inactive) | > 100 µM (inactive) | > 100 µM (inactive) | –
COc1cc(/N=N\c2ccc(OC)c(S(=O)(=O)O)c2)c(C)cc1/N=N\c1ccc(/C=C/c2ccc(/N=[N+](/[O-])c3ccc(/C=C/c4ccc(/N=N/c5cc(C)c(/N=N\c6ccc(OC)c(S(=O)(=O)O)c6)cc5OC)cc4S(=O)(=O)O)c(S(=O)(=O)O)c3)cc2S(=O)(=O)O)c(S(=O)(=O)O)c1 | > 100 µM (inactive) | > 68.1 µM (inactive) | > 100 µM (inactive) | 95.1 µM (inactive) | > 100 µM (inactive) | > 100 µM (inactive) | > 100 µM (inactive) | – | –
